# Results reported in publication PMC12862769 (ACS infectious diseases, 2025).
# Like-named read-outs stand apart in the source and are kept apart here.
# Assays:
# E. faecium NR-31914 = conditions: cited from earlier work
# [1] = tested on: all tested Enterococcus strains; experiment: MIC assay, all tested Enterococcus strains; assay type: cell-based
# E. faecalis HM-334 = conditions: cited from earlier work
# mouse gut microbiome = experiment: Mouse gut microbiome diversity in fecal pellets; assay type: in vivo, C57BL/6 mice; conditions: 20 mg/kg PO QD; CAI0019 days 7 or 14, linezolid day 7, vs pre-treatment
# [2] = tested on: E. saccharolyticus ATCC 43076; experiment: MIC assay; assay type: cell-based
# [3] = tested on: Listeria Monocytogenes ATCC 19111; experiment: MIC assay; assay type: cell-based
# E. hirae ATCC 10541 = experiment: MIC assay; assay type: cell-based
# E. faecium NR-32065 = conditions: cited from earlier work
# E. faecalis NR-31972 = conditions: cited from earlier work
# E. faecium HM-965 = experiment: MIC assay; assay type: cell-based
# E. faecium NR-32094 = experiment: MIC assay; assay type: cell-based
# E. faecalis HM-201 = experiment: MIC assay; assay type: cell-based
# E. faecalis HM-934 = experiment: MIC assay; assay type: cell-based
# E. faecium HM-952 = experiment: MIC assay; assay type: cell-based
# E. gallinarum ATCC 49373 = experiment: MIC assay; assay type: cell-based
# [4] = tested on: Staphylococcus epidermidis NRS101; experiment: MIC assay; assay type: cell-based
# E. faecium NR-31912 = experiment: MIC assay; assay type: cell-based
# [5] = tested on: E. casseliflavus ATCC 700327; experiment: MIC assay; assay type: cell-based
# E. faecium NR-32052 = conditions: cited from earlier work
# E. faecalis NR-31971 = conditions: cited from earlier work
# E. faecium HM-970 = experiment: MIC assay; assay type: cell-based
# [6] = tested on: Bacillus subtilis ATCC11774; experiment: MIC assay; assay type: cell-based
# E. faecium ATCC 700221 = experiment: MIC assay; assay type: cell-based
# E. faecium NR-31916 = conditions: cited from earlier work
# E. faecium NR-31909 [7] = experiment: Multi-step resistance selection assay; assay type: cell-based; conditions: starting passage 13
# E. raffinosus ATCC 49464 = experiment: MIC assay; assay type: cell-based
# E. faecium NR-28978 = conditions: cited from earlier work
# E. faecium NR-32053 = experiment: MIC assay; assay type: cell-based
# E. faecium NR-31954 = experiment: MIC assay; assay type: cell-based
# E. faecalis NR-31970 = experiment: MIC assay; assay type: cell-based
# E. faecium NR-31903 = conditions: cited from earlier work
# E. faecium NR-31937 = experiment: MIC assay; assay type: cell-based
# E. durans ATCC 11576 = experiment: MIC assay; assay type: cell-based
# E. faecium HM-968 = conditions: cited from earlier work
# [8] = tested on: E. faecalis and E. faecium strains; experiment: MIC assay, panel of 25 E. faecalis and E. faecium strains; assay type: cell-based
# E. faecalis HM-335 = conditions: cited from earlier work
# [9] = tested on: Staphylococcus aureus USA300; experiment: MIC assay; assay type: cell-based
# E. faecium NR-31933 = experiment: MIC assay; assay type: cell-based
# E. faecium NR-31909 [10] = experiment: E. faecium septicemic peritonitis mouse model; assay type: in vivo, BALB/c mice
# E. avium ATCC 14025 = experiment: MIC assay; assay type: cell-based
# E. faecium NR-31909 [11] = experiment: MIC assay; assay type: cell-based
# [12] = 5% CO2 atmosphere at 37° C, no CAs, expresses MpsAB homologs
smiles,measurement,setting,value
"CC(=O)NC[C@H]1CN(c2ccc(N3CCOCC3)c(F)c2)C(=O)O1 [LNZ, linezolid]",MIC,E. faecium NR-31914; 5% CO2 atmosphere at 37° C,2.96 µM
same,MIC,E. faecium NR-31914; ambient air at 37° C,2.96 µM
same,MIC shift in the presence of CO2,[1]; 5% CO2 versus ambient air,no MIC shift
same,MIC50,"[1]; Enterococcus, read-out: All Enterococci spp. MIC50",2.96 µM
same,MIC90,"[1]; Enterococcus, read-out: All Enterococci spp. MIC90",2.96 µM
same,MIC,E. faecalis HM-334; 5% CO2 atmosphere at 37° C,2.96 µM
same,MIC,E. faecalis HM-334; ambient air at 37° C,2.96 µM
same,change in microbiome diversity in fecal samples,mouse gut microbiome,no significant change
same,MIC,[2],2.96 µM
same,MIC,[2]; 5% CO2 atmosphere at 37° C,2.96 µM
same,MIC,"[3]; 5% CO2 atmosphere at 37° C, encodes only α-CA, no MpsAB homologs",2.96 µM
same,MIC,"[3]; Listeria monocytogenes, ATCC19111",2.96 µM
same,MIC,E. hirae ATCC 10541; 5% CO2 atmosphere at 37° C,2.96 µM
same,MIC,"E. hirae ATCC 10541; Enterococcus hirae, ATCC10541",2.96 µM
same,MIC,E. faecium NR-32065; 5% CO2 atmosphere at 37° C,1.48 µM
same,MIC,E. faecium NR-32065; ambient air at 37° C,0.74 µM
same,MIC,E. faecalis NR-31972; 5% CO2 atmosphere at 37° C,2.96 µM
same,MIC,E. faecalis NR-31972; ambient air at 37° C,1.48 µM
same,MIC,E. faecium HM-965; 5% CO2 atmosphere at 37° C,2.96 µM
same,MIC,"E. faecium HM-965; Enterococcus faecium, HM965",2.96 µM
same,MIC,E. faecium NR-32094; 5% CO2 atmosphere at 37° C,1.48 µM
same,MIC,"E. faecium NR-32094; Enterococcus faecium, NR32094",1.48 µM
same,MIC,E. faecalis HM-201; 5% CO2 atmosphere at 37° C,2.96 µM
same,MIC,"E. faecalis HM-201; Enterococcus faecalis, HM201",2.96 µM
same,MIC,E. faecalis HM-934; 5% CO2 atmosphere at 37° C,2.96 µM
same,MIC,"E. faecalis HM-934; Enterococcus faecalis, HM934",2.96 µM
same,MIC,E. faecium HM-952; 5% CO2 atmosphere at 37° C,2.96 µM
same,MIC,"E. faecium HM-952; Enterococcus faecium, HM952",2.96 µM
same,MIC,E. gallinarum ATCC 49373; 5% CO2 atmosphere at 37° C,2.96 µM
same,MIC,"E. gallinarum ATCC 49373; Enterococcus gallinarum, ATCC49373|GALLINARUM",2.96 µM
same,MIC,[4]; [12],2.96 µM
same,MIC,"[4]; Staphylococcus epidermidis, NRS101",2.96 µM
same,MIC,E. faecium NR-31912; 5% CO2 atmosphere at 37° C,2.96 µM
same,MIC,"E. faecium NR-31912; Enterococcus faecium, NR31912",2.96 µM
same,MIC,[5]; 5% CO2 atmosphere at 37° C,2.96 µM
same,MIC,"[5]; Enterococcus casseliflavus, ATCC700327",2.96 µM
same,MIC,E. faecium NR-32052; 5% CO2 atmosphere at 37° C,1.48 µM
same,MIC,E. faecium NR-32052; ambient air at 37° C,1.48 µM
same,MIC,E. faecalis NR-31971; 5% CO2 atmosphere at 37° C,2.96 µM
same,MIC,E. faecalis NR-31971; ambient air at 37° C,2.96 µM
same,MIC,E. faecium HM-970; 5% CO2 atmosphere at 37° C,2.96 µM
same,MIC,"E. faecium HM-970; Enterococcus faecium, HM970",2.96 µM
same,MIC,"[6]; 5% CO2 atmosphere at 37° C, encodes both MpsAB and CAs",1.48 µM
same,MIC,"[6]; Bacillus subtilis, ATCC11774",1.48 µM
same,MIC,E. faecium ATCC 700221; 5% CO2 atmosphere at 37° C,2.96 µM
same,MIC,"E. faecium ATCC 700221; Enterococcus faecium, ATCC700221",2.96 µM
same,MIC,E. faecium NR-31916; 5% CO2 atmosphere at 37° C,2.96 µM
same,MIC,E. faecium NR-31916; ambient air at 37° C,2.96 µM
same,MIC increase,E. faecium NR-31909 [7],2 fold MIC
same,MIC,E. raffinosus ATCC 49464; 5% CO2 atmosphere at 37° C,2.96 µM
same,MIC,"E. raffinosus ATCC 49464; Enterococcus raffinosus, ATCC49464",2.96 µM
same,MIC,E. faecium NR-28978; 5% CO2 atmosphere at 37° C,2.96 µM
same,MIC,E. faecium NR-28978; ambient air at 37° C,2.96 µM
same,MIC,E. faecium NR-32053; 5% CO2 atmosphere at 37° C,2.96 µM
same,MIC,"E. faecium NR-32053; Enterococcus faecium, NR32053",2.96 µM
same,MIC,E. faecium NR-31954; 5% CO2 atmosphere at 37° C,2.96 µM
same,MIC,"E. faecium NR-31954; Enterococcus faecium, NR31954",2.96 µM
same,MIC,E. faecalis NR-31970; 5% CO2 atmosphere at 37° C,2.96 µM
same,MIC,"E. faecalis NR-31970; Enterococcus faecalis, NR31970",2.96 µM
same,MIC,E. faecium NR-31903; 5% CO2 atmosphere at 37° C,47.4 µM
same,MIC,E. faecium NR-31903; ambient air at 37° C,47.4 µM
same,MIC,E. faecium NR-31937; 5% CO2 atmosphere at 37° C,2.96 µM
same,MIC,"E. faecium NR-31937; Enterococcus faecium, NR31937",2.96 µM
same,MIC,E. durans ATCC 11576; 5% CO2 atmosphere at 37° C,2.96 µM
same,MIC,"E. durans ATCC 11576; Enterococcus durans, ATCC11576",2.96 µM
same,MIC,E. faecium HM-968; 5% CO2 atmosphere at 37° C,2.96 µM
same,MIC,E. faecium HM-968; ambient air at 37° C,1.48 µM
same,MIC50,[8]; read-out: Ef MIC50,2.96 µM
same,MIC90,[8]; read-out: Ef MIC90,2.96 µM
same,MIC,E. faecalis HM-335; 5% CO2 atmosphere at 37° C,2.96 µM
same,MIC,E. faecalis HM-335; ambient air at 37° C,1.48 µM
same,MIC,[9]; [12],1.48 µM
same,MIC,"[9]; Staphylococcus aureus, USA300",1.48 µM
same,MIC,E. faecium NR-31933; 5% CO2 atmosphere at 37° C,2.96 µM
same,MIC,"E. faecium NR-31933; Enterococcus faecium, NR31933",2.96 µM
same,survival (mice rescued),"E. faecium NR-31909 [10]; 20 mg/kg PO once-daily for three days, n = 6/group",83%
same,reduction of VRE bioburden compared to vehicle,"E. faecium NR-31909 [10]; kidney, liver and spleen, each tissue, 20 mg/kg PO QD three days",at least 2 Log10 CFU/mL
same,reduction of VRE bioburden,"E. faecium NR-31909 [10]; kidney, liver and spleen, three-day treatment",> 99%
same,MIC,E. avium ATCC 14025; 5% CO2 atmosphere at 37° C,2.96 µM
same,MIC,"E. avium ATCC 14025; Enterococcus avium, ATCC14025",2.96 µM
same,MIC,E. faecium NR-31909 [11]; 5% CO2 atmosphere at 37° C,2.96 µM
same,MIC,"E. faecium NR-31909 [11]; Enterococcus faecium, NR31909",2.96 µM
